Assay [1] deals with Escherichia coli expressing NDM-1 (CLB30005). Description: Antibiotic potentiation activity: synergistic concentration (MITC95) with imipenem, growth by OD600. It is filed as cell-based. Particulars: 95% inhibition of bacterial growth, strain CLB30005. The method in brief:
(§1)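 MITC95 = lowest inhibitor concentration giving 95% growth inhibition, read by absorbance after 22–24 h at 35° C. Compound range 200 μM to 0.195 μM, imipenem fixed at 1 or 4 μg/ml, bacteria in 1.1×CAMHB from saline suspension diluted 1:100.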

For assay [2], the system named is Klebsiella pneumoniae expressing VIM-1 (IHMA599644). The assay is described as above. It is filed as cell-based. The note with it: 95% inhibition of bacterial growth, strain IHMA599644. The method in brief:
as §1

The test system of assay [3] is Serratia marcescens expressing IMP-1 (CL5741). The description is as above. The class given is cell-based. Particulars: 95% inhibition of bacterial growth, strain CL5741. The method in brief:
as §1

The next assay concerns the target VIM-1 (Pseudomonas aeruginosa, UniProt A0A0F7KYQ8). As to the kind of experiment: Enzyme activity: determination of IC50, fluorescence assay with CCF2-FA substrate. The class given is biochemical. The note with it: enzyme 30 pM, CCF2-FA 1.25 μM, 2 hours at 25° C.; read-out: VIM1 IC50. The method, boiled down: (§2)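 In pH 7 phosphate buffer (100 mM) with 10 μM ZnSO4 and 0.005% Tween-20, CCF2-FA substrate (1.25 μM final) was hydrolysed for 2 h at 25 °C by NDM-1, IMP-1 or VIM-1 at 1, 2 or 30 pM in the presence of inhibitor at 20–0.00063 μM. Emission 460 nm/excitation 405 nm; 4-parameter curve fit gave IC50.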

The target in the next assay is NDM-1 (Klebsiella pneumoniae, UniProt C7C422). The description is as above. Particulars: enzyme 1 pM, CCF2-FA 1.25 μM, 2 hours at 25° C.; read-out: NDM1 IC50. It is filed as biochemical. The method, boiled down: as §2
The next assay deals with IMP-1 (Serratia marcescens, UniProt P52699). Described as above. The class given is biochemical. Particulars: enzyme 2 pM, CCF2-FA 1.25 μM, 2 hours at 25° C.; read-out: IMP1 IC50. The method in brief:
as §2

Experimental findings from patent publication US9839642B2, “Beta-tetrazolyl-propionic acids as metallo-beta-lactamase inhibitors” (priority 2014, dated 2017) are described below.

Some results are limits rather than exact numbers.

Sequence of NDM-1 (C7C422 29-270, looked up, species assumed): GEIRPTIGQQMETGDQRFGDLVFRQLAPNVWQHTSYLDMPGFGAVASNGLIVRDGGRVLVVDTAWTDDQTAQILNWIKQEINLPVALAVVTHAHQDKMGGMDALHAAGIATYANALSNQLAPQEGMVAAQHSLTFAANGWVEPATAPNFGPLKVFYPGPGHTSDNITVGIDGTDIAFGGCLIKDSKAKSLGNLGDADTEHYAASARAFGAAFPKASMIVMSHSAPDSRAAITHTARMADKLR
Sequence of IMP-1 (P52699 19-246, looked up, species assumed): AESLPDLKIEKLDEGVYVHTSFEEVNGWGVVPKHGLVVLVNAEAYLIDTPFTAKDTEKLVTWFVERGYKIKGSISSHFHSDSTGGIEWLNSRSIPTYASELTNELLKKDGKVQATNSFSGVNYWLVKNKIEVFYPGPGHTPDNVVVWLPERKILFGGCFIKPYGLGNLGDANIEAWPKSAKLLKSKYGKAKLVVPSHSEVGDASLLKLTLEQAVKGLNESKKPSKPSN

Consider `O=C(O)[C@@H](C1CCCC1)[C@H](Cc1ccccc1)c1nnn[nH]1` [Example 17, (2S,3S)-2-cyclopentyl-4-phenyl-3-(1H-tetrazol-5-yl)butanoic acid], for which, in assay [1], the “NDM1 EC30005 MITC95” value amounted to 18.8 µM. Besides, the “VIM1 KP599644 MITC95” value in assay [2] was found to be 37.5 µM. The “IMP1 SM5741 MITC95” value in assay [3] is 37.5 µM. For the same molecule, the IC50 (usually the concentration needed to halve the response being measured) was 3.7 nM at VIM-1, 16 nM at NDM-1 and 110 nM at IMP-1.

Take `CCCC(C)[C@H](C(=O)O)[C@H](Cc1ccccc1)c1nnn[nH]1` (stereo partly drawn) [Example 18, (2S)-3-methyl-2-((S)-2-phenyl-1-(1H-tetrazol-5-yl)ethyl)hexanoic acid]: in assay [1], the “NDM1 EC30005 MITC95” value was 18.8 µM. In addition, in assay [2], the “VIM1 KP599644 MITC95” value is 200 µM. Also, the “IMP1 SM5741 MITC95” value in assay [3] worked out at 37.5 µM. Further, the IC50 is 36 nM on VIM-1, 26 nM at NDM-1 and 30 nM on IMP-1.

Turning to `CCC(C)[C@H](C(=O)O)[C@H](Cc1ccccc1)c1nnn[nH]1` (stereo partly drawn) [Example 19, (2S)-3-methyl-2-((S)-2-phenyl-1-(1H-tetrazol-5-yl)ethyl)pentanoic acid], in assay [1], the “NDM1 EC30005 MITC95” value is 9.4 µM. Besides, in assay [2], the “VIM1 KP599644 MITC95” value stood at 50 µM. In assay [3], the “IMP1 SM5741 MITC95” value is 50 µM. Besides, the IC50 worked out at 24 nM on VIM-1, 31 nM at NDM-1 and 62 nM on IMP-1.

With `CC(C)[C@H](C(=O)O)[C@H](Cc1ccccc1)c1nnn[nH]1` [Example 20, (2S,3S)-2-isopropyl-4-phenyl-3-(1H-tetrazol-5-yl)butanoic acid], the “NDM1 EC30005 MITC95” value in assay [1] was 4.7 µM. The “VIM1 KP599644 MITC95” value in assay [2] was found to be 69 µM. The “IMP1 SM5741 MITC95” value in assay [3] came out at 128 µM. Also, the IC50 on VIM-1 was found to be 22 nM; at NDM-1 it was 26 nM; on IMP-1, 390 nM.

For the molecule `O=C(O)[C@@H](CCF)[C@H](Cc1ccccc1)c1nnn[nH]1` [Example 21, (2S,3S)-2-(2-fluoroethyl)-4-phenyl-3-(1H-tetrazol-5-yl)butanoic acid], in assay [1], the “NDM1 EC30005 MITC95” value turned out to be 75 µM. In addition, the “VIM1 KP599644 MITC95” value in assay [2] is over 200 µM. Further, the “IMP1 SM5741 MITC95” value in assay [3] is over 200 µM. Further, the IC50 is 15 nM at VIM-1, 190 nM on NDM-1 and 2700 nM at IMP-1.

In the case of `O=C(O)[C@@H](CC(F)F)[C@H](Cc1ccccc1)c1nnn[nH]1` [Example 22, (2S,3S)-2-(2,2-difluoroethyl)-4-phenyl-3-(1H-tetrazol-5-yl)butanoic acid], the “NDM1 EC30005 MITC95” value in assay [1] is 31 µM. For the same molecule, the “VIM1 KP599644 MITC95” value in assay [2] was found to be 50 µM. In assay [3], the “IMP1 SM5741 MITC95” value was 200 µM. In addition, the IC50 on VIM-1 was determined as 14 nM; on NDM-1, 280 nM; at IMP-1, 2600 nM.

With `CC(C)C[C@H](C(=O)O)[C@@H](c1nnn[nH]1)[C@H](C)c1ccccc1` [Example 27, (2S,3S,4S)-2-isobutyl-4-phenyl-3-(1H-tetrazol-5-yl)pentanoic acid], in assay [1], the “NDM1 EC30005 MITC95” value was determined as 15.6 µM. Also, the “VIM1 KP599644 MITC95” value in assay [2] stood at 37.5 µM. Besides, the “IMP1 SM5741 MITC95” value in assay [3] turned out to be 13 µM. Further, the IC50 at VIM-1 worked out at 7.7 nM; at NDM-1, 16 nM; at IMP-1, 62 nM.

Consider `C[C@@H](c1ccccc1)[C@H](c1nnn[nH]1)[C@H](CCF)C(=O)O` [Example 28, (2S,3S,4R)-2-(2-fluoroethyl)-4-phenyl-3-(1H-tetrazol-5-yl)pentanoic acid], for which the “NDM1 EC30005 MITC95” value in assay [1] was determined as 200 µM. Also, the “VIM1 KP599644 MITC95” value in assay [2] is over 200 µM. The “IMP1 SM5741 MITC95” value in assay [3] was over 200 µM. Also, the IC50 is 190 nM at VIM-1, 310 nM at NDM-1 and 1800 nM at IMP-1.

As for `CC[C@H](C(=O)O)[C@@H](c1nnn[nH]1)[C@@H](C)c1ccccc1` [Example 29, (2S,3S,4R)-2-ethyl-4-phenyl-3-(1H-tetrazol-5-yl)pentanoic acid], the “NDM1 EC30005 MITC95” value in assay [1] worked out at 25 µM. Besides, the “VIM1 KP599644 MITC95” value in assay [2] was determined as 200 µM. Also, the “IMP1 SM5741 MITC95” value in assay [3] was over 200 µM. The half-maximal inhibitory concentration (IC50) at VIM-1 was found to be 210 nM; at NDM-1 it was 530 nM; on IMP-1, 2300 nM.
